# According to patent US12495798B2, “Nicotinamide compound and herbicidal composition comprising compound” (KOREA RESEARCH INSTITUTE OF CHEMICAL TECHNOLOGY, priority 2019, dated 2025):
# Assays:
# Type in all cases: in vivo
# bindweed = assay: Herbicidal activity test against upland field weeds (soil treatment test); set-up: key to Soil treatment herbicidal activity, Bindweed: 0 (no control); 100 (complete control); conditions: 50 g ai/ha, scale 0 (no control) to 100 (complete control)
# Method in brief: (§1)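 Pre-emergence test: seeds or rootstocks were sown in fertilized sandy loam, and the next day the soil surface was sprayed with compound at 50 or 75 g a.i./ha in 50% acetone/0.1% Tween-20. Plants were grown in a greenhouse (30±5 °C, 14/10 h light/dark), then visually scored 0–100 against untreated at 14 d (21 d if needed).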
# black nightshade [1] = assay: Herbicidal activity test against upland field weeds (foliar treatment test); set-up: key to Foliar treatment herbicidal activity, black nightshade: 0 (no control); 100 (complete control); conditions: 50 g ai/ha, scale 0-100
# Method in brief: (§2)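 Weeds were raised from seed or rootstocks in horticultural soil in a greenhouse (30±5° C., 14/10 h light/dark), then foliage was hand-sprayed with compound at 50 or 75 g a.i./ha in 50% acetone with 0.1% Tween-20. Control was scored visually 0–100 against untreated plants after 14 days, or 21 if needed.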
# cocklebur [2] = assay: Herbicidal activity test against upland field weeds (soil treatment test); set-up: key to Soil treatment herbicidal activity, Cocklebur: 0 (no control); 100 (complete control); conditions: 50 g ai/ha, scale 0 (no control) to 100 (complete control)
# Method in brief: as §1
# black nightshade [3] = assay: as above; set-up: key to Soil treatment herbicidal activity, black nightshade: 0 (no control); 100 (complete control); conditions: 50 g ai/ha, scale 0 (no control) to 100 (complete control)
# Method in brief: as §1
# cocklebur [4] = assay: Herbicidal activity test against upland field weeds (foliar treatment test); set-up: key to Foliar treatment herbicidal activity, Cocklebur: 0 (no control); 100 (complete control); conditions: 50 g ai/ha, scale 0-100
# Method in brief: as §2
# velvetleaf = assay: Herbicidal activity test against upland field weeds (soil treatment test); set-up: key to Soil treatment herbicidal activity, velvet leaf: 0 (no control); 100 (complete control); conditions: 50 g ai/ha, scale 0 (no control) to 100 (complete control)
# Method in brief: as §1
smiles,measurement,setting,value
"CCOC(=O)OC(C)N(C(=O)c1ccc(C(F)(F)F)nc1COCc1nnn(C)n1)c1nnnn1C (stereo not drawn) [Compound No. 4-8, ethyl(1-(N-(1-methyl-1H-tetrazol-5-yl)-2-(((2-methyl-2H-tetrazol-5-yl)methoxy)methyl)-6-(trifluoromethyl)nicotinamido)ethyl)carbonate]","Soil treatment herbicidal activity, Bindweed",bindweed,0
same,"Foliar treatment herbicidal activity, black nightshade",black nightshade [1],100
same,"Soil treatment herbicidal activity, Cocklebur",cocklebur [2],0
same,"Soil treatment herbicidal activity, black nightshade",black nightshade [3],100
same,"Foliar treatment herbicidal activity, Cocklebur",cocklebur [4],100
same,"Soil treatment herbicidal activity, velvet leaf",velvetleaf,100
